Measured values published in patent US7438926B2, “Methods for inhibiting decrease in transdermal drug flux by inhibition of pathway closure” (Alza Corporation, priority 2000, dated 2008).
Read-outs that look alike come from different tables or passages of the source.

What was measured:
[1] = format: in vivo, hairless guinea pigs
[2] = format: in vivo, hairless guinea pigs; details: passive, array pretreatment (545 micrometer, 72/cm^2), PPS 0.05 mg/mL, DECAD 12 mg/mL, Inulin 2.5 mg/mL
From the text: Decrease in drug flux has been studied with three model drugs presenting different charge characteristics: pentosan polysulfate (PPS), a highly negatively charged compound, DECAD, a synthetic model decapeptide bearing two positive charges at pH 5.5, and inulin, a neutral polysaccharide.
In this experiment, PPS, DECAD, and inulin were delivered by passive diffusion through pathways in the skin created by pretreatment with a microprotrusion array. Pretreatment involves placing a microprotrusion array onto the skin with sufficient force to create a plurality of microslits/microcuts through the stratum corneum of the skin. The microprotrusion array is then removed from the skin and then some form of agent delivery device or agent reservoir is placed over the pathways in order to effect agent delivery or sampling. Pretreatment was used instead of integrated system because pathway closure appears to occur more rapidly and more reproducibly following pretreatment than when the microprotrusions are left in the skin during drug delivery. The concentration of PPS was below the concentration required for anticoagulant effect. All drugs were dissolved in water and solutions were gelled with 2% hydroxyethylcellulose. […]. PPS and DECAD were radiolabeled with tritium. […] was radiolabeled with ^14C.
Microprotrusion array application was performed with an impact applicator. […]. […]

pathway closure [3] = assay: Effect of pathway closure inhibitors on passive transdermal PPS flux (Example 3, 545 μm array); format: in vivo, hairless guinea pigs; details: for Effect on decrease in PPS flux between 1 and 24 h (in words): 3% citric acid trisodium salt or 50% 1,2,6-hexanetriol in PPS 0.1 mg/mL formulation; for Increase in total amount of PPS transported as compared to controls: 3% citric acid trisodium salt or 50% 1,2,6-hexanetriol
Experimental: In this experiment, PPS was delivered by passive diffusion through pathways in the skin created by a microprotrusion array. The concentration of PPS was below the concentration required for inhibition of pathway collapse (see Table II). Therefore, at the concentration used in this experiment, PPS behaved like a drug lacking any activity on pathway closure.
Microprotrusion array application was performed with an impact applicator. […] Following application, the stretching tension was released. […] Flux in the presence of 1,2,6-hexanetriol was decreased by less than 2 fold between 1 and 24 h. Total amount transported was increased about 4 and 7 folds in the presence of citric acid and 1,2,6-hexanetriol, respectively, as compared to controls as shown in FIG. 2.

pathway closure [4] = assay: Inhibition of pathway closure by chemicals, methylene blue dye score after microprotrusion array pretreatment; format: in vivo, hairless guinea pigs; details: 24 h; for Effect on pathway closure (in words): methylene blue evaluation, Table II; for Score (methylene blue): scale 0 to 5, 0.5 or greater significant
Experimental: Inhibition of pathway collapse by chemical agents was studied following pretreatment of the skin with a microprotrusion array and application of a formulation containing the agent for 24 h. Quantitation was performed by evaluation of dye impregnation of the pathways.
Application of the microprotrusion array was performed with an impact applicator. […] Following application, the stretching tension was released. […] The guinea pig received a second system containing a different formulation on the opposite site. Twenty four hours after application, three systems from each group were removed and residual formulation washed from the skin. The skin was stained with a 1% methylene blue solution. Excess dye was thoroughly removed with 70% isopropyl alcohol pads and a picture of the site was taken. Pictures were scored on a 0 to 5 scale, 5 being the dye uptake obtained immediately following microprotrusion array application and 0 being the dye uptake obtained after 24 h contact with a control formulation. A score of 0.5 or greater was considered significant. Various osmotic agents, anticoagulants, antiinflammatory agents, gelling agents as well as gels of different pH and various additives were tested (Table II).

pathway closure [5] = assay: India ink staining of sites after microprotrusion array pretreatment; format: in vivo, hairless guinea pigs; details: sites exposed to the additive for 24 h
pathway closure [6] = details: PPS 0.16 mg/mL; 3% citric acid trisodium salt, 50% 1,2,6-hexanetriol or their mixture; 45 min vs 24 h
Experimental: In all guinea pigs, the skin of one flank was manually stretched bilaterally at the time of the application of the system. Microprotrusion array application was performed with an impact applicator. […] Following application, the stretching tension was released. The adhesive ring was left adhered on the skin and the microprotrusion array was removed. […] Additional groups of HGPs were treated in the same way, except that the formulation contained 3% citric acid trisodium salt or 50% 1,2,6-hexanetriol. At 1 and 24 h after application, 3 systems from each group were removed and residual drug washed from the skin.
(§1) Evaluation was performed at 45 min instead of 1 h. In addition, additional groups of animals received a formulation containing the mixture of 3% citric acid trisodium salt and 50% 1,2,6-hexanetriol.

[7] = design: species or system hairless guinea pigs; details: guinea pig, in vivo
From the text: […]. […] […].

[8] = design: species or system hairless guinea pigs; details: guinea pig, in vivo; remark: listed apart in the source
Experimental: Additional experiments were performed with PPS in order to test alternative modes of delivery. […]. By comparison, with the same microprotrusion array and the same PPS concentration, total dose from a transdermal microprotrusion array with integrated drug reservoir and a pretreatment with a microprotrusion array and subsequent application of a drug reservoir was 2.2±0.2 mg and 1.4±0.2 mg, respectively. […]

[9] = in vivo, po, cited from earlier work
pathway closure [10] = details: guinea pig, not told
Experimental: as §1
An additional experiment was performed with PPS. Conditions were identical to that described in Example 4. Gluconic acid sodium salt, glucuronic acid sodium salt and glucose were evaluated at 0.6 M concentration with or without 3% citric acid.

inulin
percentage excreted in urine following iv injection ([1]; over two days following injection, previous studies): 94%
Drug Flux ([2]; 1 h): 13.9 ± 1.6 μg/(cm^2h)
Drug Flux ([2]; 24 h): 0.489 ± 0.123 μg/(cm^2h)

O=C(O)CC(O)(CC(=O)O)C(=O)O [citric acid]
Effect on decrease in PPS flux between 1 and 24 h (in words) (pathway closure [3]): inhibited this decrease in flux
Increase in total amount of PPS transported as compared to controls (pathway closure [3]; PPS 0.1 mg/mL): about 4 folds
Effect on pathway closure (in words) (pathway closure [4]): most effective agents in preventing pathway closure
Pathways open for larger sized compounds (India ink staining) (pathway closure [5]): pathways were open for larger sized compounds
Effect on decrease in PPS flux at 24 hours (in words) (pathway closure [6]): inhibited significantly the decrease in flux

OCCCCC(O)CO (stereo not drawn) [1,2,6-Hexanetriol]
Effect on decrease in PPS flux between 1 and 24 h (in words) (pathway closure [3]): inhibited this decrease in flux
Increase in total amount of PPS transported as compared to controls (pathway closure [3]; PPS 0.1 mg/mL): ~7 folds
Decrease in PPS flux between 1 and 24 h in the presence of additive (pathway closure [3]; PPS 0.1 mg/mL, formulation with 50% 1,2,6-hexanetriol): less than 2 fold
Effect on pathway closure (in words) (pathway closure [4]): most effective agents
Score (methylene blue) (pathway closure [4]; additive concentration 11%): 2.0 ± 0.3
Score (methylene blue) (pathway closure [4]; additive concentration 23%): 3.0 ± 0.5
Score (methylene blue) (pathway closure [4]; additive concentration 50%): 3.8 ± 0.2
Effect on decrease in PPS flux at 24 hours (in words) (pathway closure [6]): inhibited significantly the decrease in flux

OCC(O)CO [Glycerin]
Score (methylene blue) (pathway closure [4]; additive concentration 30%): 2.7 ± 0.2
Score (methylene blue) (pathway closure [4]; additive concentration 50%): 3.0 ± 0.2
Score (methylene blue) (pathway closure [4]; additive concentration 70%): 2.7 ± 0.3
Pathways open for larger sized compounds (India ink staining) (pathway closure [5]): pathways were open for larger sized compounds

pentosan polysulfate [PPS]
Decrease in PPS flux between 1 hour and 24 hours (pathway closure [3]; PPS 0.1 mg/mL, 2% HEC, no anti-healing agent): about 12 fold
intact fraction of dose excreted in urine [7]: more than 85%
total dose [8]: 2.2 ± 0.2 mg
total dose delivered [8]: 1.9 ± 0.1 mg
percentage excreted in urine following iv injection ([1]; guinea pig, in vivo, iv): 32%
bioavailability ([9]; 300 mg): 1-3%
fraction of dose absorbed found intact in urine [9]: less than 5%
Score (methylene blue) (pathway closure [4]; additive concentration 0.01%): 0 ± 0
Score (methylene blue) (pathway closure [4]; additive concentration 5%): 0.5 ± 0.0
Change of PPS flux between 1 hour and 24 hours (in words) (pathway closure [10]): flux decreased dramatically
